Source: patent US8017614B2, “Arylindenopyrimidines compound and use as an adenosine A2a receptor antagonists” (priority 2007, dated 2011)

Key:
[1] = target: T1, A1 (Homo sapiens, UniProt P30542); assay: A1 cell-based functional assay
T1 sequence (P30542 1-326): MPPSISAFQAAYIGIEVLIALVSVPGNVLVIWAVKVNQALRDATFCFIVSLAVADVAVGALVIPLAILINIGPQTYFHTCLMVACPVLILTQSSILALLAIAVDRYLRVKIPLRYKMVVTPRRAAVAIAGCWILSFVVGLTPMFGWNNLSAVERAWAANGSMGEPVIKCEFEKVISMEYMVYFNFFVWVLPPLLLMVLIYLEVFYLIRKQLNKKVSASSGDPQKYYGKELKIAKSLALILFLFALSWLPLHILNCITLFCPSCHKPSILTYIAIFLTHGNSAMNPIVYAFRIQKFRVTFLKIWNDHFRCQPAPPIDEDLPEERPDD

[2] = target: T2, human adenosine A2a receptors (Homo sapiens, UniProt P29274); assay: Adenosine A2a receptor functional assay (cAMP-inducible beta-galactosidase reporter, antagonist mode vs NECA); conditions: CHO-K1 cells overexpressing human adenosine A2a receptors; 50 nM NECA; read-out: A2a cell-based functional Ki
T2 construct: expressed in transfected cells; host or cells: CHO-K1
T2 sequence (P29274 whole entry): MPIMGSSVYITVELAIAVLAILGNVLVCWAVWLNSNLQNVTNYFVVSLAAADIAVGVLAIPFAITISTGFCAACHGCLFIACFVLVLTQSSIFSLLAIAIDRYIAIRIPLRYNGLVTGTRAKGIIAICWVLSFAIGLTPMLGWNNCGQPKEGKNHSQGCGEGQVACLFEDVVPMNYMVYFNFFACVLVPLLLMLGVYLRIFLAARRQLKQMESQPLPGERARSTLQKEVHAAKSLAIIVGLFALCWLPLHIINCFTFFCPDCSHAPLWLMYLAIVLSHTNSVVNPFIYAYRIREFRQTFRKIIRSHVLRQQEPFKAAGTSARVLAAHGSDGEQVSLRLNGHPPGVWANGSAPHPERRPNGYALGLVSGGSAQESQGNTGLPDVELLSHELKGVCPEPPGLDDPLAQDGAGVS
Description: Ligand binding assay of adenosine A2a receptor was performed using plasma membrane of HEK293 cells containing human A2a adenosine receptor (PerkinElmer, RB-HA2a) and radioligand [3H] CGS21680 (PerkinElmer, NET1021). Assay was set up in 96-well polypropylene plate in total volume of 200, uL by sequentially adding 20 pL1:20 diluted membrane, pLassay buffer (50 mM Tris HCl, pH7.4 10 mM MgCl2, 1 mM EDTA) containing [3H] CGS2168O, 50, uL diluted compound (4×) or vehicle control in assay buffer. Nonspecific binding was determined by […] NECA. Reaction was carried out at room temperature for 2 hours before filtering through 96 well GF/C filter plate pre-soaked in 50 mM Tris HCl, pH7.4 containing 0.3% polyethylenimine. Plates were then washed 5 times with cold 50 mM Tris HCl, pH7.4, dried and sealed at the bottom. Microscintillation fluid 30, ul was added to each well and the top sealed. Plates were counted on Packard Topcount for [3H]. Data was analyzed in Microsoft Excel and GraphPad Prism programs. […] Plates were counted at 405 nm on Vmax Machine (Molecular Devices). Data was analyzed in Microsoft Excel and GraphPad Prism programs. […]

Ki [1]: 58.4 nM
Ki [2]: 8.2 nM
Structure (SMILES): CN1CCN(C(=O)c2ccc3c(c2)-c2nc(N)nc(-c4ccccc4)c2C3=O)CC1 [Compound A, 2-Amino-8-(4-methyl-piperazine-1-carbonyl)-4-phenyl-indeno[1,2-d]pyrimidin-5-one]
